Data reported in publication PMC8895129, “Pseudomonas aeruginosa Biofilm Dispersion by the Human Atrial Natriuretic Peptide” (Advanced Science, 2022).
Where two headings read alike, the source gives them in different places.

Legend:
[1] = test system: P. aeruginosa PA14 established biofilm; experiment: Dispersion of 24 h established biofilm in flow cell, CLSM/COMSTAT; format: cell-based, Pseudomonas aeruginosa; settings: mean ± SEM; for biofilm biovolumes reduction: 37 °C
Procedure: For biofilm dispersion experiments, overnight cultures of P. aeruginosa strains were performed in LB medium at 37 °C for 18 h with shaking (180 rpm). Bacterial cells were then washed and adjusted to OD580 = 0.1 in 0.9% w/v NaCl. The bacterial suspensions were then used to form a biofilm for 24 h under hydrodynamic conditions at 37 °C. Briefly, each channel of the flow cell was inoculated with 300 µL of bacterial suspension. A 2 h attachment step was performed without flow. After 2 h, each channel was then pumped with a 2.5 mL h^–1 flow rate of LB medium during 24 h. Next, the 24 h old biofilm of P. aeruginosa was exposed for 2 h (or 30 min) to 300 µL of studied compounds (i.e., peptides, antibiotics, or a combination of peptide + antibiotics) or 300 µL of ultra‐pure distilled water (control condition), added to each channel of the flow cell and without flow. Prior to image acquisition, biofilm cultures were then rinsed with LB medium using 2.5 mL h^–1 flow rate for 15 min. Finally, biofilm cells were stained and then observed by CLSM.
The CLSM observations of biofilms were performed using a Zeiss LSM710 microscope (Carl Zeiss Microscopy, Oberkochen, Germany) using a x40 oil immersion objective. Bacteria into the biofilm were stained with 5 × 10^−6 M of SYTO9 green‐fluorescent dye (Invitrogen, Carlsbad, CA). Biofilm matrix components were stained using fluorescent dyes. To assess the eDNA relative abundance, 1 × 10^−6 M of DDAO (Invitrogen, Carlsbad, CA) was used. The polysaccharides β1‐3 and β1‐4 were labeled with CalcoFluor White M2R at 200 µg mL^−1 (Sigma‐Aldrich, USA). eDNA and polysaccharides values were normalized to biofilms’ biomass. The Live/Dead BacLight kit (Invitrogen, Carlsbad, CA) was used to examine bacterial viability in biofilms according to manufacturer instructions. Images were taken every micrometer throughout the whole biofilm depth. For visualization and processing of 3D image, the Zen 2.1 SP1 software (Carl Zeiss Microscopy, Oberkochen, Germany) was used. Quantitative analyses of images stacks were performed using the COMSTAT software (http://www.imageanalysis.dk/).^[ [77] ^] At least three image stacks from at least three independent experiments were used for each analysis.

[2] = molecular target: T1, AmiC (Pseudomonas aeruginosa, UniProt P27017); set-up: made in house; settings: cited from earlier work
Text: […]; see 2.0 ± 0.3 × 10^−6 M for hCNP^[ [44] ^]). This is consistent with the van der Waals and hydrog ...

[3] = test system: human Ether-a-go-go Related Gene (hERG) channel
[4] = molecular target: T1, AmiC; experiment: biochemical
Procedure: Briefly, AmiC protein was labeled using the RED‐NHS labeling kit (NanoTemper Technologies). The labeling reaction was performed according to the manufacturer's instructions in the supplied labeling buffer using a 20 × 10^−6 M protein concentration and a molar dye:protein ratio ≈2:1, at RT for 30 min. […] The label:protein ratio was determined using photometry at 650 and 280 nm. Typically, a ratio of 0.8 was achieved.
For thermophoresis, each ligand dilution was mixed with one volume of AmiC, which led to a final concentration of AmiC of 50 × 10^−9 M and final ligand concentrations at half of the ranges above. Instrument parameters were adjusted with 50% light‐emitting diode power and 20% MST power. Data of three independently pipetted measurements were analyzed (NT.Analysis software version 1.5.41, NanoTemper Technologies) using the signal from Thermophoresis + T‐Jump.

T1 sequence (P27017 whole entry): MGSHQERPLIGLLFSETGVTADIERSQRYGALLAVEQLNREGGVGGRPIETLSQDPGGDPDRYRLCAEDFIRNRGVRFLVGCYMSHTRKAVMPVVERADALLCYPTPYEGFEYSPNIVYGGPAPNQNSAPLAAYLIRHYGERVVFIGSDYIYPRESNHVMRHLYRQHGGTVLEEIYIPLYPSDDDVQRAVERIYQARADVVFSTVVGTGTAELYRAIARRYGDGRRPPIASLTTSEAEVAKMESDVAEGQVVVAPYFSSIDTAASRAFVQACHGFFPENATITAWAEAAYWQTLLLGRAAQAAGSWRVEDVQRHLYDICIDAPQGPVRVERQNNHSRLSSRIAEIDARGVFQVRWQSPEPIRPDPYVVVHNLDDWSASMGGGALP

C[C@@H](O)[C@H]1C(=O)N2C(C(=O)O)=C(SCCN=CN)C[C@H]12 [imipenem]
biofilm reduction ([1]; imipenem 0.5 µg mL^−1, 2 h, n = 5): 69.8 ± 3.0%

polymyxin B
biovolume reduction ([1]; polymyxin B 4 µg mL^−1, 2 h, n = 5): 70.0 ± 4.3%

Brain Natriuretic Peptide [hBNP]
affinity for AmiC [2]: no affinity

CC[C@H](C)[C@@H]1NC(=O)[C@H](CCCNC(=N)N)NC(=O)[C@H](CC(=O)O)NC(=O)[C@H](CCSC)NC(=O)[C@H](CCCNC(=N)N)NC(=O)CNC(=O)CNC(=O)[C@H](Cc2ccccc2)NC(=O)[C@@H](NC(=O)[C@H](CO)NC(=O)[C@H](CO)NC(=O)[C@H](CCCNC(=N)N)NC(=O)[C@H](CCCNC(=N)N)NC(=O)[C@H](CC(C)C)NC(=O)[C@@H](N)CO)CSSC[C@@H](C(=O)N[C@@H](CC(N)=O)C(=O)N[C@@H](CO)C(=O)N[C@@H](Cc2ccccc2)C(=O)N[C@@H](CCCNC(=N)N)C(=O)N[C@@H](Cc2ccc(O)cc2)C(=O)O)NC(=O)CNC(=O)[C@H](CC(C)C)NC(=O)CNC(=O)[C@H](CO)NC(=O)[C@H](CCC(N)=O)NC(=O)[C@H](C)NC(=O)CNC1=O [hANP, human Atrial Natriuretic Peptide]
hERG cardiac channel conductance [3]: did not modify | Kd [4]: 5 ± 3 µM

NC[C@H]1O[C@H](O[C@H]2[C@H](O)[C@@H](O[C@H]3O[C@H](CO)[C@@H](O)[C@H](N)[C@H]3O)[C@H](N)C[C@@H]2N)[C@H](N)C[C@@H]1O [tobramycin]
biofilm biovolumes reduction ([1]; tobramycin 10 µg mL^−1, 2 h, n = 3): 79.0 ± 4.0% | biofilm biovolumes reduction ([1]; tobramycin 50 µg mL^−1, 2 h, n = 4): 76.6 ± 4.0%

C‐type Natriuretic Peptide [hCNP]
Kd ([2]; microscale thermophoresis, read-out: K D, binding to AmiC): 2 ± 0.3 µM
